The values below come from PMC6491818, “Novel 4-Acrylamido-Quinoline Derivatives as Potent PI3K/mTOR Dual Inhibitors: The Design, Synthesis, and in vitro and in vivo Biological Evaluation” (Frontiers in Chemistry, 2019).

Molecules are shown by their SMILES. Entries after “also recorded” stand apart in the source; their conditions may differ.

For one series, the target named is PI3Kα (Homo sapiens, UniProt P42336). The experiment in a line: PI3Kα enzymatic assay (Kinase-Glo Luminescent Kinase assay). It is filed as biochemical.
PI3Kα, sequence (P42336 whole entry): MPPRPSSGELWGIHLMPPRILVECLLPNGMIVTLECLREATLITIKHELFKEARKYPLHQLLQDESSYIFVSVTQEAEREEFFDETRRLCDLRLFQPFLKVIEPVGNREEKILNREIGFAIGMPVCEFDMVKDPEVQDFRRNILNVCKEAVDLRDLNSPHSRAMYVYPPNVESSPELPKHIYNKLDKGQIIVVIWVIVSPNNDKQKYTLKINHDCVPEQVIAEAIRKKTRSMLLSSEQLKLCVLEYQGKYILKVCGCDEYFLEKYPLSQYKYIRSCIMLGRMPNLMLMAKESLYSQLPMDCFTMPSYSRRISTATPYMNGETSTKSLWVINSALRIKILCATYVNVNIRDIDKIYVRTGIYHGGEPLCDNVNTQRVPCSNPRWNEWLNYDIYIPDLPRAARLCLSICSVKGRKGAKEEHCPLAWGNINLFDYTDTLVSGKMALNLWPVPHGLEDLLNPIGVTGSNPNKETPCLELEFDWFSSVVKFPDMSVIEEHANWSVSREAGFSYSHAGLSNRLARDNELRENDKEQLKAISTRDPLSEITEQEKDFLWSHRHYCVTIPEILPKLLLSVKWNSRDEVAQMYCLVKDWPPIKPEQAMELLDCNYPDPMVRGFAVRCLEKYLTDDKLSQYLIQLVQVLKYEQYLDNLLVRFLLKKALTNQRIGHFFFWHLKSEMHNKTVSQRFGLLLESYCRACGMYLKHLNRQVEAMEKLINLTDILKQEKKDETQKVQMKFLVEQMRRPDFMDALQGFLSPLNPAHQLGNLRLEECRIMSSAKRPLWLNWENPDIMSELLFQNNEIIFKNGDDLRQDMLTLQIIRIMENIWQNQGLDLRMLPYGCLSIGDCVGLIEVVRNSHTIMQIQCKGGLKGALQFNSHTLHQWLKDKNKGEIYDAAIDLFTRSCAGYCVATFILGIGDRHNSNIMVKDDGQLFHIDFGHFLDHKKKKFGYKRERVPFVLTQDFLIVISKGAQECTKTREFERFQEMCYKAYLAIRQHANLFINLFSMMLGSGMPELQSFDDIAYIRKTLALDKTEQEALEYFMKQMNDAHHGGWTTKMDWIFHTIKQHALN
PI3Kα, sequence (P27986 whole entry partner): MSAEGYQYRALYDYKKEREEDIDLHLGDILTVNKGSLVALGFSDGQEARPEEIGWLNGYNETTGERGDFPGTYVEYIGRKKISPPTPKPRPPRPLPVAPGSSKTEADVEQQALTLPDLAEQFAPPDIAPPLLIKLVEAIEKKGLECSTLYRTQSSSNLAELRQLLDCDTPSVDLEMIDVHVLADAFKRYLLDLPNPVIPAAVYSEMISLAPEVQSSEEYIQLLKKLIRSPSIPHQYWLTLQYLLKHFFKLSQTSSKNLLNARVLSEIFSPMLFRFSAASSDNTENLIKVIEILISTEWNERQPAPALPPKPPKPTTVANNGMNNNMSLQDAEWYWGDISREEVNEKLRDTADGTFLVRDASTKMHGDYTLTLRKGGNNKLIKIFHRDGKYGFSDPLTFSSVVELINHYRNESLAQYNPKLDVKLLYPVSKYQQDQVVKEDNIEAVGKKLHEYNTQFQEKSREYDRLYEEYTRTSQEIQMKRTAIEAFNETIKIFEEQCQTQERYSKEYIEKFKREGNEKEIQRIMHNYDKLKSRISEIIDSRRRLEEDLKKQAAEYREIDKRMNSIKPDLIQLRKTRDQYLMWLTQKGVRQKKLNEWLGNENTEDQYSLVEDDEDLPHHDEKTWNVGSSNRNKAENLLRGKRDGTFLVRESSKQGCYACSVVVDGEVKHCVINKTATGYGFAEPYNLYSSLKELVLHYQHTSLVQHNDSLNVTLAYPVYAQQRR
For another series, the target named is PI3Kβ (Homo sapiens, UniProt P42338). The experiment in a line: PI3Kβ enzymatic assay (ADP-Glo Luminescent assay). It is filed as biochemical.
PI3Kβ, sequence (P42338 whole entry): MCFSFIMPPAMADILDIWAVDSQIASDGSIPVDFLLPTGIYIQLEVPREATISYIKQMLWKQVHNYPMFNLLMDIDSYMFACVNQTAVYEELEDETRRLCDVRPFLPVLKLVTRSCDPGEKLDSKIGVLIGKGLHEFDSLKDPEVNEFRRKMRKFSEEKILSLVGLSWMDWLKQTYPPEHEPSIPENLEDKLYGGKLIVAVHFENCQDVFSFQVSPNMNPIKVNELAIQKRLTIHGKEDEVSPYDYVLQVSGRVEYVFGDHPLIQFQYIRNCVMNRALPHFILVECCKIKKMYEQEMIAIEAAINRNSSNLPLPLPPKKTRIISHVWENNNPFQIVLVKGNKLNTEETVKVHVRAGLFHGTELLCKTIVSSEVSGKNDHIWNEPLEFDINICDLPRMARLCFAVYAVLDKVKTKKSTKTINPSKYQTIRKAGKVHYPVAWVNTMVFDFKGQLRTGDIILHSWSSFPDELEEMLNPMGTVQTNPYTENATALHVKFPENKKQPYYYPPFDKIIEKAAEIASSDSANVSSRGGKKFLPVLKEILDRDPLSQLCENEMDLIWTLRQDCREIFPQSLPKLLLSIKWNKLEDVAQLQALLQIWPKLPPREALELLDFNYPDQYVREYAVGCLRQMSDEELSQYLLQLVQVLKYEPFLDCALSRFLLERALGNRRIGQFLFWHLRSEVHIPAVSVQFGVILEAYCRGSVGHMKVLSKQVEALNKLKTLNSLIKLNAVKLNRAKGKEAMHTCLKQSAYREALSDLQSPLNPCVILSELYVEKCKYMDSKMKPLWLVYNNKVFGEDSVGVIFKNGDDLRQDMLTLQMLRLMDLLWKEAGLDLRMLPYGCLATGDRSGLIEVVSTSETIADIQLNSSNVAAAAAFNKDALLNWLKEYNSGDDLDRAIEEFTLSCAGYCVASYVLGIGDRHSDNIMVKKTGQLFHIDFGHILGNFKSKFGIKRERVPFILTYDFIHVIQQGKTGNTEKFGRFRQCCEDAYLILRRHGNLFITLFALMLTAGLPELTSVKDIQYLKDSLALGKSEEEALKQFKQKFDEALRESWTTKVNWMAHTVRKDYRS
PI3Kβ, sequence (P27986 whole entry partner): as the sequence (P27986 whole entry partner) above
In the next series the target is PI3Kγ (Homo sapiens, UniProt P48736). The series can be described thus: PI3Kγ enzymatic assay (ADP-Glo Luminescent assay). It is filed as biochemical. How it is done:
(§1) Kinase-Glo Luminescent Kinase assay (Promega) was performed to determine the PI3Kα inhibitory activity, while ADP-Glo Luminescent assay (Promega) was performed to identify the inhibitory activity against PI3Kβ, γ, or δ. The kinase buffer was composed of HEPES (50 mM, pH 7.5), MgCl2 (3 mM), EGTA (1 mM), NaCl (100 mM), CHAPS (0.03%) and DTT (2 mM). The serially diluted compound solutions […] were successively added to a 384-well plate. Afterwards, the solution of kinase […] in the kinase buffer and the solution of substrate (5 mL) in the kinase buffer containing PIP2 and ATP were added to each well of the assay plate for starting the reaction. Kinase buffer was added instead to the control well without enzyme. The final concentrations of PI3Kα, PI3Kβ, PI3Kγ, PI3Kδ, PIP2, and ATP in corresponding kinase reaction mixture were 1.65 nM, 4.8 nM, 7.6 nM, 5.7 nM, […], respectively. After being incubated at room temperature for 1 h, Kinase-Glo reagent (10 mL) was added to each well of the PI3Kα assay plate to quench the reaction. Subsequently, the mixture needs to be mixed briefly with centrifuge and shaken slowly for 15 min before being read on a plate reader for luminescence. As for PI3Kβ, γ, or δ, reaction mixture (5 mL) was transferred to a new 384-plate and ADP-Glo reagent (5 mL) was added for stopping the reaction. The mixture was treated briefly with centrifuge, shaken slowly, and equilibrated for 40 min. Kinase Detection reagent (10 mL) was added to each well. Before reading on a plate reader for luminescence, the resultant mixture was incubated at room temperature for 1 h. After calculating the percent inhibition from the RLU values, the curves were fitted in Graphpad Prism 5 to give IC50 values.

The target of the next series is PI3Kδ (Homo sapiens, UniProt O00329). The experiment in a line: PI3Kδ enzymatic assay (ADP-Glo Luminescent assay). It is filed as biochemical.
PI3Kδ, sequence (O00329 whole entry): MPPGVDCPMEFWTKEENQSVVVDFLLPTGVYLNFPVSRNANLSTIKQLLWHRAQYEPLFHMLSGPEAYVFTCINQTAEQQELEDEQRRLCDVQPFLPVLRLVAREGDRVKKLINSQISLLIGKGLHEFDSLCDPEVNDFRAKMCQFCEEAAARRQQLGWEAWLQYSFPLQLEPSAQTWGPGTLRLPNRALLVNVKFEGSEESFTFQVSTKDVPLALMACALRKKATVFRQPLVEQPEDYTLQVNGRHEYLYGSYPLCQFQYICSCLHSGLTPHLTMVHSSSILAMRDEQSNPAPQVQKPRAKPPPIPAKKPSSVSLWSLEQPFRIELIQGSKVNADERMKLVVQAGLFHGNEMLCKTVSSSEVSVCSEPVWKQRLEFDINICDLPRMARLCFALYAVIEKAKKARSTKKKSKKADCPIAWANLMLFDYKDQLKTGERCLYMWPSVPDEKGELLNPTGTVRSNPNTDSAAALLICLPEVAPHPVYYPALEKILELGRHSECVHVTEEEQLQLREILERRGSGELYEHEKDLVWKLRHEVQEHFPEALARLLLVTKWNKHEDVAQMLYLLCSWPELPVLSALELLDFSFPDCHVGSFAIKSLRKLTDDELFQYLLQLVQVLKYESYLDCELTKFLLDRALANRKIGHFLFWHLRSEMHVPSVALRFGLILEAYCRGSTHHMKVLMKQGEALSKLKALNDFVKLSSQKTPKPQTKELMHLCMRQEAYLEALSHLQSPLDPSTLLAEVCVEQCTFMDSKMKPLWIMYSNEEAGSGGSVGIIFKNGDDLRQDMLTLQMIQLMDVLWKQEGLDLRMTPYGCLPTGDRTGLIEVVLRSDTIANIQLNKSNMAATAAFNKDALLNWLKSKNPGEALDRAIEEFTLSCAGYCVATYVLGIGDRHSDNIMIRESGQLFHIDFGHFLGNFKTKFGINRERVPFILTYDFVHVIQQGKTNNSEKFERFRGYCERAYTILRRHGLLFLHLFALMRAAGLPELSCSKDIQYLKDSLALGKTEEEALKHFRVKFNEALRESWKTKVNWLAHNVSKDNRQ
PI3Kδ, sequence (P27986 whole entry partner): as the sequence (P27986 whole entry partner) above
In series [1] the target is mTOR (1362-end, Millipore) (Homo sapiens, UniProt P42345). The experiment in a line: mTOR enzymatic assay (Lance Ultra assay). It is filed as biochemical.
Protocol: The kinase buffer was composed of HEPES (50 mM, pH 7.5), MgCl2 (10 mM), EGTA (1 mM), MnCl2 (3 mM), Tween-20 (0.01%) and DTT (2 mM). The solution of substrate in the kinase buffer contained ULight-4E-BP1 peptide (Thr37/46, PE) and ATP. […] After being incubated at room temperature for 1 h, kinase detection buffer (10 mL) containing EDTA and Eu-anti-phospho-4E-BP1 antibody (Thr37/46, PE) was added to each well of the assay plate. Before reading on a plate reader, the mixture needs to be mixed briefly with centrifuge and then allowed to equilibrate for 1 h. After calculating the percent inhibition from Lance signal, the curves were fitted in Graphpad Prism 5 to give IC50 values.
The subject of series [2] is prostate cancer PC3 cell line. The experiment in a line: Anti-proliferative SRB assay, PC3. As to conditions: PC3 cells, 72 h exposure. It is filed as cell-based. As to the method:
(§2) The anti-proliferative activity of compounds was evaluated by sulforhodamin B (SRB) assay. After being cultured for 10 h, cells in 96-well plates were subjected to 72 h-exposure to serially diluted compound solutions. Cells were washed with PBS and fixed with trichloroacetic acid (10%, W/V) at 4°C for 1 h. Then, cells were successively washed with PBS, stained for 0.5 h with SRB (0.4%, dissolved in 1% acetic acid), and washed by 1% acetic acid for 5 times. Protein-bound dye was extracted with unbuffered Tris base (10 mmol). After calculating the percent inhibition from absorbance, measured at 515 nm with a multiscan spectrum (Thermo Electron Co., Vantaa, Finland), the curves were fitted in Graphpad Prism 5 to give GI50 values.

Series [3] deals with colorectal cancer HCT116 cell line. The experiment in a line: Anti-proliferative SRB assay, HCT116. Format: cell-based. As to conditions: 72 h exposure. As to the method: as §2
Series [4] concerns phos-Akt (Ser473), phos-Akt (Thr308), phos-S6 ribosomal protein (Ser235/236), phos-4E-BP1 (Thr37/46). The experiment in a line: Western blot of PI3K/Akt/mTOR signaling biomarkers in PC3 cells. Format: cell-based. Particulars: 3 h treatment. As to the method:
The Western blot analysis for evaluating the capability to down-regulate phos-Akt (Ser473), phos-Akt (Thr308), phos-S6 ribosomal protein (Ser235/236), and phos-4E-BP1 (Thr37/46) in PC3 cells was performed according to the protocol disclosed in our previous study (Zhang et al., [2017a]) with a minor modification. The cells were seeded into six-well plate at 1 × 10^6 cells per well, and then incubated at 37°C (5% CO2) overnight prior to drug treatment.

Series [5] can be described thus: Pharmacokinetic study in SD rats, oral. Format: in vivo. Particulars: Sprague-Dawley, rat, plasma, 5 mg/kg. As to the method:
SD rats were utilized for the PK study of 8i following oral gavage at the dosage of 5 mg/kg, and the oral dose was formulated in a homogenous opaque suspension of 0.5% methylcellulose. This experiment was performed with the protocol disclosed in our previous work (Zhang et al., [2017b]). The study was carried out in accordance with institutional guidelines of the Animal Research Committee at Jiaxing University (log number JXU2015120812). The protocol was approved by the institution.

A further series has as its target PI3Ks and mTOR. The series can be described thus: Enzymatic activity against PI3Ks and mTOR (summary over all tested enzymes). It is filed as biochemical. Particulars: PI3Kα, PI3Kβ, PI3Kγ, PI3Kδ and mTOR. How it is done: as §1, with “After being incubated at room temperature for 1 h, Kinase-Glo reagent (10 mL) was added to each well of the PI3Kα assay plate to quench the reaction.” left out, “As for PI3Kβ, γ, or δ, reaction mixture (5 mL) was transferred to a new 384-plate and ADP-Glo reagent (5 mL) was added for stopping the reaction. The mixture was treated briefly with centrifuge, shaken slowly, and equilibrated for 40 min. Kinase Detection reagent (10 mL) was added to each well.” left out, “After calculating the percent inhibition from the RLU values, the curves were fitted in Graphpad Prism 5 to give IC50 values.” left out
Lance Ultra assay was performed to determine the mTOR (1362-end, Millipore) inhibitory activity. […] Before reading on a plate reader, the mixture needs to be mixed briefly with centrifuge and then allowed to equilibrate for 1 h. […]

The nature of series [6]: Liver microsomal stability assay, HLM. As to conditions: human, liver microsomes.
Series [7] is described as follows: Liver microsomal stability assay, RLM. Particulars: Sprague-Dawley, rat, liver microsomes.
The nature of series [8]: in vitro. Particulars: human, microsomes.
Series [9] can be described thus: in vitro. As to conditions: Sprague-Dawley, rat, microsomes.

PI3Kγ, sequence (P48736 whole entry): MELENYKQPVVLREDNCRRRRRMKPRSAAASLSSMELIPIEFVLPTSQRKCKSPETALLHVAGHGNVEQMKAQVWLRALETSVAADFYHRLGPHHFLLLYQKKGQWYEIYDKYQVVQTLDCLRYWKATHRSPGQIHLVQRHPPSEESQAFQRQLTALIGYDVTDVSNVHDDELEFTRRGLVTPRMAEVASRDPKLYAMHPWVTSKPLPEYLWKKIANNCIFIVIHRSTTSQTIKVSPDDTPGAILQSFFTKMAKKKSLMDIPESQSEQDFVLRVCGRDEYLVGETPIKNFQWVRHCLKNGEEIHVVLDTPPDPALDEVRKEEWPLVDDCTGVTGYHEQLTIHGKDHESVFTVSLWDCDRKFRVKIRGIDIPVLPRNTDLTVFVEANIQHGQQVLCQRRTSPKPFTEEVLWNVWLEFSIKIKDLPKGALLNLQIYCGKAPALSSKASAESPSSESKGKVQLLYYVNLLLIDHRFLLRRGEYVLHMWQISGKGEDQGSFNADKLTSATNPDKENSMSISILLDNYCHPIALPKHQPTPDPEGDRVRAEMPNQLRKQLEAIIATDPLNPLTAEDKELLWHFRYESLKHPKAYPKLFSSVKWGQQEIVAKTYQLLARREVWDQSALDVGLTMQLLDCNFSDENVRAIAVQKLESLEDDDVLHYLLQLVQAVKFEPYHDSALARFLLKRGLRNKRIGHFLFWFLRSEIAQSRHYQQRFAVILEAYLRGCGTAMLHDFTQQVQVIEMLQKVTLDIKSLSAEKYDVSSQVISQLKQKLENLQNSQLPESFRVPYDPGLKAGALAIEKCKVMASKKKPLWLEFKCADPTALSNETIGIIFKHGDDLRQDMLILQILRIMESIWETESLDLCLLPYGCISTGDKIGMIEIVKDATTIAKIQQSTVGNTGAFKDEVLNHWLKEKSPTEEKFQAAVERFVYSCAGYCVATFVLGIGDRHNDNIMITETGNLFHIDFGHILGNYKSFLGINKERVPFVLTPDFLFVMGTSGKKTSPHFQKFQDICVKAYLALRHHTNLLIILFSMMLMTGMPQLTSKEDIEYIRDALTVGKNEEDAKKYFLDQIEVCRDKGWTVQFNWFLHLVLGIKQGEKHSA
Protocol for PI3Kα: (§3) Kinase-Glo Luminescent Kinase assay (Promega) was performed to determine the PI3Kα inhibitory activity, while ADP-Glo Luminescent assay (Promega) was performed to identify the inhibitory activity against PI3Kβ, γ, or δ. The kinase buffer was composed of HEPES (50 mM, pH 7.5), MgCl2 (3 mM), EGTA (1 mM), NaCl (100 mM), CHAPS (0.03%) and DTT (2 mM). The serially diluted compound solutions (2.5 mL) were successively added to a 384-well plate. Afterwards, the solution of kinase (2.5 mL) in the kinase buffer and the solution of substrate (5 mL) in the kinase buffer containing PIP2 and ATP were added to each well of the assay plate for starting the reaction. Kinase buffer was added instead to the control well without enzyme. […] After being incubated at room temperature for 1 h, Kinase-Glo reagent (10 mL) was added to each well of the PI3Kα assay plate to quench the reaction. […] The mixture was treated briefly with centrifuge, shaken slowly, and equilibrated for 40 min. Kinase Detection reagent (10 mL) was added to each well. Before reading on a plate reader for luminescence, the resultant mixture was incubated at room temperature for 1 h. After calculating the percent inhibition from the RLU values, the curves were fitted in Graphpad Prism 5 to give IC50 values.
Protocol for PI3Kβ: as §3
Protocol for PI3Kδ: as §3

For the compound `COc1ncc(-c2ccc3nccc(/C=C/C(=O)N4CCN(C)CC4)c3c2)cc1NS(=O)(=O)c1ccc(F)cc1F` [8i, (E)-2,4-difluoro-N-(2-methoxy-5-(4-(3-(4-methylpiperazin-1-yl)-3-oxoprop-1-en-1-yl)quinolin-6-yl)pyridin-3-yl)benzenesulfonamide], the half-maximal inhibitory concentration (IC50) against PI3Kα came out at 0.5 nM; on PI3Kβ it was 1.5 nM; at PI3Kγ, 0.55 nM; against PI3Kδ, 1 nM; in series [1], 1.3 nM. In addition, the GI50 was under 500 nM in [2] (Homo sapiens, PC-3, 72 h); 400 nM in series [2]; 470 nM in [3] (Homo sapiens, HCT-116, HCT116 cells). In addition, in series [3] (HCT116 cells), the “GI50 HCT116” value was “sub-micromolar”. In addition, in [4], the “effect on the level of phos-Akt (Ser473) compared with GSK2126458” value was “stronger”. Besides, the “down-regulation of phos-Akt (Ser473), phos-Akt (Thr308), phos-S6 ribosomal protein (Ser235/236) and phos-4E-BP1 (Thr37/46)” value in [4] (at a concentration as low as 5 nM) is “dramatically down-regulated; also recorded: remarkably down-regulated”. In series [5], this compound showed an AUC(0-inf) of 412 ng·h/mL. The compound also gave an area under the curve AUC(0-t) in series [5] of 379 ng·h/mL. The concentration in series [5] peaked (Cmax) at 249 ng/mL. Besides, the half-life was 1.73 h in [5] (read-out: elimination half-life t1/2 (converted)), 1.25 h in series [6] and over 2.42 h in series [7]. The “IC50 values against all the tested enzymes” value at PI3Ks and mTOR is given as “sub-nanomolar or low nanomolar level”. Moreover, the CLint scaled in series [6] is 16.6 mL/min/kg; in series [7], under 17.3 mL/min/kg. In addition, the intrinsic clearance (microsomal CLint) in series [6] was 18.5 µL/min/mg; in series [7], under 9.6 µL/min/mg. Moreover, the fraction remaining at 1 h was found to be 57.1% in series [6] and 72.8% in series [7].

For `C[C@]12CC[C@H]3[C@@H](CCC4=CC(=O)CC[C@@]43C)[C@@H]1CC[C@@H]2O` [Testosterone], in “in vitro [8]”, the intrinsic clearance (CLint scaled) is 91.1 mL/min/kg and the fraction remaining at 1 h was determined as 4.8%. The compound further registered a CLint scaled in the series “in vitro [9]” of 3780 mL/min/kg.
